This is an account of results in ChEMBL document CHEMBL1201862, “PubChem BioAssay data set” (2004).

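Values below derive from 48-hour exposures of cells grown in 96-well plates, with endpoints linearly interpolated between the two concentrations bracketing the appropriate inhibition level. GI50: concentration for 50% inhibition of growth.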 Active and inactive are the calls of the source. No stated cut-off is given here; in the data, active = GI50 up to about 1.1 µM and inactive = higher. Non-standard residues stand in square brackets, D forms with d. Residues, ends and D or L forms follow the SMILES beside them. Ava = NCCCCC(=O)O; Mpa = O=C(O)CCS

Experiment in all cases: NCI-60 cell line screen, 48 h
Assay [1] concerns MDA-MB-435.
Assay [2] relates to NCI-H226.
Assay [3] concerns SR.
Assay [4] has as its system T47D.
Assay [5] relates to SW-620.
The test system of assay [6] is NCI/ADR-RES.
The subject of assay [7] is PC-3.
The test system of assay [8] is HCT-15.
For assay [9], the system named is K562.
The test system of assay [10] is RXF 393.
For assay [11], the system named is HCT-116.
For assay [12], the system named is SN12C.
Assay [13] concerns OVCAR-3.
For assay [14], the system named is HL-60.
Assay [15] concerns MDA-N.
Assay [16] relates to SF-539.
Assay [17] relates to TK-10.
For assay [18], the system named is A498.
In assay [19] the test system is OVCAR-4.
For assay [20], the system named is SF-268.

As for `COc1ccc(Cc2nc3cc(C(F)(F)F)ccc3n2C[C@@H]2CCCN3CCCCC23)cc1` (stereo partly specified), the GI50 in assay [1] is 12.2 µM (inactive); in [2] it was 18.1 µM (inactive); in [3], 3.93 µM (inactive); in [4], 6.04 µM (inactive); in assay [5], 21.3 µM (inactive); in [6], 14.2 µM (inactive). In addition, the GI50 in [7] is 10.6 µM (inactive); in [8] it was 14.2 µM; in assay [9], 13.7 µM (inactive); in assay [10], 5.4 µM (inactive); in assay [11] it was 5.58 µM (inactive); in [12] it was 7.31 µM (inactive). Further, the GI50 is 5.77 µM (inactive) in assay [13]; 4.81 µM (inactive) in assay [14]; 4.59 µM (inactive) in assay [15]; 13.5 µM (inactive) in [16]; 9.1 µM (inactive) in assay [17]; 4.4 µM (inactive) in assay [18]. The GI50 in [19] was 11.7 µM (inactive).
Take `CC(NC(=O)CCS)C(=O)NC(C)C(=O)NC(Cc1c[nH]c2ccccc12)C(=O)NC(Cc1c[nH]cn1)C(=O)NC(CO)C(=O)NC(Cc1c[nH]c2ccccc12)C(=O)NCCCCC(=O)NC(C)C(=O)NC(CCC(N)=O)C(=O)NC(CCCCN)C(=O)NC(C)C(=O)NC(CCCNC(=N)N)C(=O)NC(CCCCN)C(N)=O` (stereo unspecified) ([Mpa]AAWHSW[Ava]AQKARK-NH2; configuration not given here): the GI50 in assay [1] is 45.9 µM (inactive); in assay [2], > 100 µM (inactive); in [3] it was 87.5 µM (inactive); in assay [4], 23.9 µM (inactive); in [5] it was 94.4 µM (inactive); in [6] it was > 100 µM (inactive). In addition, the GI50 in assay [7] was > 100 µM (inactive); in [8], > 100 µM; in [9], 26.9 µM (inactive); in assay [10], > 100 µM (inactive); in assay [11], > 100 µM (inactive); in assay [12], > 100 µM (inactive). For the same molecule, the GI50 was > 100 µM (inactive) in assay [13]; 24.7 µM (inactive) in assay [14]; 54.2 µM (inactive) in assay [15]; > 100 µM (inactive) in assay [16]; 29.2 µM (inactive) in [20]; > 100 µM (inactive) in assay [17]. The GI50 in assay [18] and in assay [19] was > 100 µM (inactive) each time.
In the case of `Cc1ccc(C)c(NC(=O)C(=O)C(c2cnc3ccc([N+](=O)[O-])cc3n2)[N+](=O)[O-])c1` (stereo unspecified), the GI50 is 46.2 µM (inactive) in [1]; 34.1 µM (inactive) in [2]; 34.4 µM (inactive) in assay [3]; 38.5 µM (inactive) in assay [4]; 30 µM (inactive) in [5]; 25.8 µM (inactive) in [6]. Moreover, the GI50 in assay [7] is 52.1 µM (inactive); in assay [8], 76.6 µM; in assay [9], 41.4 µM (inactive); in assay [10], 50.1 µM (inactive); in [11] it was 58.6 µM (inactive); in [12] it was 59.7 µM (inactive). Besides, the GI50 in assay [13] is 68.1 µM (inactive); in assay [14] it was 14.9 µM (inactive); in assay [15] it was 70.6 µM (inactive); in [16], > 100 µM (inactive); in assay [20], > 100 µM (inactive); in assay [17], 27.3 µM (inactive). Besides, the values for the GI50 in assay [18] and in assay [19] were 33.2 µM (inactive) and 17.3 µM (inactive), respectively.
As to `Nc1ccc(Cc2ccc(/N=C\c3ccc(OCc4cccc(COc5ccc(/C=N\c6ccc(Cc7ccc(N)cc7)cc6)cc5)n4)cc3)cc2)cc1`, the GI50 in assay [1] was > 100 µM (inactive); in [2], > 100 µM (inactive); in assay [3], > 100 µM (inactive); in assay [4], 68.9 µM (inactive); in [5], > 100 µM (inactive); in assay [6], > 100 µM (inactive). Besides, the GI50 in assay [7] is > 100 µM (inactive); in assay [8] it was > 100 µM; in [9], > 100 µM (inactive); in [10] it was 23.1 µM (inactive); in assay [11] it was > 100 µM (inactive); in assay [12] it was > 100 µM (inactive). Also, the GI50 in assay [13] was 72.3 µM (inactive); in assay [14], > 100 µM (inactive); in [15] it was > 100 µM (inactive); in assay [16], 4.29 µM (inactive); in [20], 45.2 µM (inactive); in assay [17], 81.3 µM (inactive). Besides, the values for the GI50 in assay [18] and in assay [19] were 61.5 µM (inactive) and 85.1 µM (inactive), respectively.
Consider `COC(=O)c1c(C)cccc1C1CN=NC12Cc1c(C)cccc1C2=O` (stereo unspecified), for which the GI50 in assay [1] is 39.8 µM (inactive); in assay [2], > 100 µM (inactive); in [3] it was > 100 µM (inactive); in assay [4], 37.9 µM (inactive); in [5], > 100 µM (inactive); in assay [6] it was 59.6 µM (inactive). Besides, the GI50 in [7] is 37.2 µM (inactive); in [8], 88.1 µM; in assay [9] it was 37.2 µM (inactive); in [10], > 100 µM (inactive); in assay [11] it was 68.7 µM (inactive); in assay [12] it was > 100 µM (inactive). Moreover, the GI50 was 45.2 µM (inactive) in assay [13]; 34.9 µM (inactive) in [14]; > 100 µM (inactive) in [15]; > 100 µM (inactive) in [16]; > 100 µM (inactive) in assay [20]; > 100 µM (inactive) in [17]. The GI50 in assay [18] is 37.8 µM (inactive); in [19] it was 35.7 µM (inactive).
On to `Cc1ccc(Cl)c2c1NC(=O)/C2=N\Nc1ccccc1[N+](=O)[O-]`, for which the GI50 is 15.7 µM (inactive) in assay [1]; > 100 µM (inactive) in assay [2]; 8.22 µM (inactive) in assay [3]; 44.3 µM (inactive) in assay [4]; 27 µM (inactive) in [5]; 57.1 µM (inactive) in [6]. In addition, the GI50 is 27.7 µM (inactive) in assay [7]; 37.8 µM in [8]; 39.4 µM (inactive) in assay [9]; > 100 µM (inactive) in assay [10]; 36.3 µM (inactive) in [11]; > 100 µM (inactive) in [12]. Further, the GI50 in assay [13] is 27.3 µM (inactive); in assay [14], 25.5 µM (inactive); in assay [15], 39.4 µM (inactive); in assay [16], 21.3 µM (inactive); in [20] it was 45.8 µM (inactive); in assay [17] it was > 100 µM (inactive). Further, the GI50 was > 100 µM (inactive) in assay [18] and 96.6 µM (inactive) in assay [19].
As to `COc1ccccc1-c1cc(O)c2cccnc2n1`, the GI50 was 23.4 µM (inactive) in assay [1]; 49.7 µM (inactive) in assay [2]; > 100 µM (inactive) in [3]; 69.7 µM (inactive) in assay [4]; 30.1 µM (inactive) in [5]; 37 µM (inactive) in [6]. Besides, the GI50 in [7] is 40.2 µM (inactive); in assay [8], 23.7 µM; in [9], 30.3 µM (inactive); in assay [10], > 100 µM (inactive); in [11], 27.5 µM (inactive); in assay [12], 50.2 µM (inactive). The GI50 is 36.5 µM (inactive) in assay [13]; 39.3 µM (inactive) in assay [14]; 20 µM (inactive) in [15]; 56.9 µM (inactive) in [16]; 72.4 µM (inactive) in assay [20]; > 100 µM (inactive) in assay [17]. The results for the GI50 in assay [18] and in assay [19] were 54.2 µM (inactive) and 69.5 µM (inactive), respectively.
`COC(=O)c1scc(N)c1-n1ccc(=O)[nH]c1=O`: the GI50 in assay [1], in assay [2], in [3], in [4], in assay [5] and in assay [6] was > 100 µM (inactive) in each case. Further, the GI50 in [7] is > 100 µM (inactive); in assay [8], > 100 µM; in assay [9] it was > 100 µM (inactive); in assay [10], > 100 µM (inactive); in assay [11] it was > 100 µM (inactive); in assay [12], > 100 µM (inactive). The GI50 in [14], in assay [15], in assay [16], in [20], in [17] and in assay [18] was > 100 µM (inactive) throughout. For the same molecule, in [19], the GI50 was > 100 µM (inactive).
For `CCC(=O)Nc1ccc(NS(=O)(=O)c2ccc(Cl)cc2)cc1`, the GI50 in [1] is > 100 µM (inactive); in assay [2] it was 19.5 µM (inactive); in assay [3], 89.3 µM (inactive); in assay [4], > 100 µM (inactive); in [5] it was > 100 µM (inactive); in [6] it was > 100 µM (inactive). The GI50 in assay [7] was > 100 µM (inactive); in [8], > 100 µM; in assay [9] it was 29.9 µM (inactive); in assay [10] it was > 100 µM (inactive); in assay [11] it was > 100 µM (inactive); in [12], > 100 µM (inactive). For the same molecule, the GI50 in assay [13] was 43.5 µM (inactive); in [14] it was 28.2 µM (inactive); in assay [15], > 100 µM (inactive); in assay [16] it was > 100 µM (inactive); in [20], > 100 µM (inactive); in assay [18], > 100 µM (inactive). In addition, in assay [19], the GI50 is 53.6 µM (inactive).
Take `CCOC(=O)NC(NNc1ccc([N+](=O)[O-])cc1[N+](=O)[O-])(C(F)(F)F)C(F)(F)F`: the GI50 in [1] is 42.6 µM (inactive); in [2], 36 µM (inactive); in [3] it was 5.79 µM (inactive); in assay [4], 35.1 µM (inactive); in [5], 40.3 µM (inactive); in assay [6] it was 33.3 µM (inactive). Further, the GI50 in assay [7] is 24.7 µM (inactive); in [8], 27.9 µM; in [9], 25.1 µM (inactive); in assay [10], 27.8 µM (inactive); in assay [11], 32.1 µM (inactive); in [12], 27.7 µM (inactive). Moreover, the GI50 is 31.6 µM (inactive) in [13]; 14.4 µM (inactive) in [14]; 40.7 µM (inactive) in [15]; 22.5 µM (inactive) in [16]; 43.4 µM (inactive) in [20]; 30.7 µM (inactive) in [17]. The GI50 in assay [18] was 19.7 µM (inactive).
